Assay results from patent publication US8952024B2, “Herbicidal pyrimidone derivatives” (E I du Pont de Nemours and Company, priority 2009, dated 2015).
Where two headings read alike, the source gives them in different places.

Assays:
Test in all cases: Test B pre-/postemergence plant response
Format in all cases: in vivo
[1] = test system: blackgrass (Alopecurus myosuroides); conditions: Preemergence
Method in brief: (§1)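 Ratings reflect visual comparison with untreated controls 13 to 15 days after application, from 0 (no effect) to 100 (complete control). Application was preemergence to seeded loam/sand soil or postemergence to 1- to 4-leaf plants, with compound in a non-phytotoxic, surfactant-containing solvent.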

[2] = test system: downy bromegrass (Bromus tectorum); conditions: for pest or weed control at 31 g/ha: 31 g ai/ha; for pest or weed control at 125 g/ha: 125 g ai/ha
Method in brief: as §1

[3] = test system: bermudagrass (Cynodon dactylon); conditions: for pest or weed control at 31 g/ha: 31 g ai/ha; for pest or weed control at 125 g/ha: 125 g ai/ha
Method in brief: as §1

[4] = test system: velvetleaf (Abutilon theophrasti); conditions: for pest or weed control at 125 g/ha: 125 g ai/ha
Method in brief: as §1

[5] = test system: cocklebur (Xanthium strumarium); conditions: for pest or weed control at 31 g/ha: 31 g ai/ha; for pest or weed control at 125 g/ha: 125 g ai/ha
Method in brief: as §1

[6] = test system: ragweed (common ragweed, Ambrosia elatior); conditions: for pest or weed control at 125 g/ha: 125 g ai/ha
Method in brief: as §1

[7] = test system: green foxtail (Setaria viridis); conditions: for pest or weed control at 31 g/ha: 31 g ai/ha; for pest or weed control at 125 g/ha: 125 g ai/ha
Method in brief: as §1

[8] = test system: morningglory (Ipomoea coccinea)
Method in brief: as §1

[9] = test system: kochia (Kochia scoparia); conditions: for pest or weed control at 31 g/ha: 31 g ai/ha; for pest or weed control at 125 g/ha: 125 g ai/ha
Method in brief: as §1

[10] = 62 g ai/ha, postemergence, 0 is no effect, 100 is complete control, 13 to 15 days
[11] = Preemergence, 250 g ai/ha, 0 to 100 scale

Structure (SMILES): O=C1CCCC(O)=C1C(=O)c1cnc(-c2cccnc2)n(-c2ccccc2)c1=O [Compound 113, 5-[(2-hydroxy-6-oxo-1-cyclohexen-1-yl)carbonyl]-3-phenyl-2-(3-pyridinyl)-4(3H)-pyrimidone]
- pest or weed control at 125 g/ha ([1]; Alopecurus myosuroides, pre-emergence, 360 h, 125 g ai/ha, scale 0 to 100, 0 no effect, 100 complete control, read-out: Plant response rating, Blackgrass): 0%
- Blackgrass plant response rating ([1]; 250 g ai/ha, 0 to 100 scale): 20
- Bromegrass, Downy plant response rating (0 to 100 scale) [2, 10]: 60
- pest or weed control at 31 g/ha ([2]; Bromus tectorum, post-emergence, postemergence, scale 0 to 100, 0 is no effect, 100 is complete control, read-out: Plant response rating, Bromegrass, Downy): 5%
- pest or weed control at 125 g/ha ([2]; Bromus tectorum, post-emergence, Postemergence, scale 0 to 100 (0 no effect, 100 complete control), read-out: Plant response rating, Bromegrass, Downy): 80%
- pest or weed control at 250 g/ha ([2]; Bromus tectorum, post-emergence, Postemergence, 250 g ai/ha, scale 0 to 100 (0 no effect, 100 complete control), read-out: Plant response rating, Bromegrass, Downy): 90%
- pest or weed control at 31 g/ha ([2]; Bromus tectorum, pre-emergence, Preemergence, scale 0 to 100 (0 no effect, 100 complete control), read-out: Plant response rating, Bromegrass, Downy): 0%
- pest or weed control at 62 g/ha ([2]; Bromus tectorum, pre-emergence, Preemergence, 62 g ai/ha, scale 0 to 100, 0 no effect, 100 complete control, read-out: Plant response rating, Bromegrass, Downy): 10%
- pest or weed control at 125 g/ha ([2]; Bromus tectorum, pre-emergence, Preemergence, scale 0 to 100, 0 no effect, 100 complete control, read-out: Plant response rating, Bromegrass, Downy): 10%
- Bromegrass, Downy plant response rating [2, 11]: 10
- Bermudagrass plant response rating (0 to 100 scale) [3, 10]: 90
- pest or weed control at 31 g/ha ([3]; Cynodon dactylon, post-emergence, postemergence, scale 0 to 100, 0 is no effect, 100 is complete control, read-out: Plant response rating, Bermudagrass): 80%
- pest or weed control at 125 g/ha ([3]; Cynodon dactylon, post-emergence, Postemergence, scale 0 to 100 (0 no effect, 100 complete control), read-out: Plant response rating, Bermudagrass): 95%
- pest or weed control at 250 g/ha ([3]; Cynodon dactylon, post-emergence, Postemergence, 250 g ai/ha, scale 0 to 100 (0 no effect, 100 complete control), read-out: Plant response rating, Bermudagrass): 95%
- pest or weed control at 31 g/ha ([3]; Cynodon dactylon, pre-emergence, Preemergence, scale 0 to 100 (0 no effect, 100 complete control), read-out: Plant response rating, Bermudagrass): 95%
- pest or weed control at 62 g/ha ([3]; Cynodon dactylon, pre-emergence, Preemergence, 62 g ai/ha, scale 0 to 100, 0 no effect, 100 complete control, read-out: Plant response rating, Bermudagrass): 95%
- pest or weed control at 125 g/ha ([3]; Cynodon dactylon, pre-emergence, Preemergence, scale 0 to 100, 0 no effect, 100 complete control, read-out: Plant response rating, Bermudagrass): 100%
- Bermudagrass plant response rating ([3]; Preemergence, 250 g ai/ha, 0 to 100 scale, 0 no effect, 100 complete control): 100
- Velvetleaf plant response rating (0 to 100 scale) [4, 10]: 95
- pest or weed control at 125 g/ha ([4]; Abutilon theophrasti, post-emergence, 360 h, Postemergence, scale 0 to 100 (0 no effect, 100 complete control), read-out: Plant response rating, Velvetleaf): 98%
- pest or weed control at 250 g/ha ([4]; Abutilon theophrasti, post-emergence, 360 h, Postemergence, 250 g ai/ha, scale 0 to 100 (0 no effect, 100 complete control), read-out: Plant response rating, Velvetleaf): 98%
- pest or weed control at 31 g/ha ([4]; Abutilon theophrasti, pre-emergence, 360 h, Preemergence, 31 g ai/ha, scale 0 to 100 (0 no effect, 100 complete control), read-out: Plant response rating, Velvetleaf): 80%
- pest or weed control at 62 g/ha ([4]; Abutilon theophrasti, pre-emergence, 360 h, Preemergence, 62 g ai/ha, scale 0 to 100 (0 no effect, 100 complete control), read-out: Plant response rating, Velvetleaf): 100%
- pest or weed control at 125 g/ha ([4]; Abutilon theophrasti, pre-emergence, 360 h, Preemergence, scale 0 to 100, 0 no effect, 100 complete control, read-out: Plant response rating, Velvetleaf): 100%
- Velvetleaf plant response rating [4, 11]: 100
- Cocklebur plant response rating (0 to 100 scale) [5, 10]: 95
- Cocklebur plant response rating [5, 11]: 100
- pest or weed control at 31 g/ha ([5]; Xanthium strumarium, post-emergence, postemergence, scale 0 to 100, 0 is no effect, 100 is complete control, read-out: Plant response rating, Cocklebur): 95%
- pest or weed control at 125 g/ha ([5]; Xanthium strumarium, post-emergence, Postemergence, scale 0 to 100 (0 no effect, 100 complete control), read-out: Plant response rating, Cocklebur): 98%
- pest or weed control at 250 g/ha ([5]; Xanthium strumarium, post-emergence, Postemergence, 250 g ai/ha, scale 0 to 100 (0 no effect, 100 complete control), read-out: Plant response rating, Cocklebur): 98%
- pest or weed control at 31 g/ha ([5]; Xanthium strumarium, pre-emergence, Preemergence, scale 0 to 100 (0 no effect, 100 complete control), read-out: Plant response rating, Cocklebur): 45%
- pest or weed control at 62 g/ha ([5]; Xanthium strumarium, pre-emergence, Preemergence, 62 g ai/ha, scale 0 to 100, 0 no effect, 100 complete control, read-out: Plant response rating, Cocklebur): 75%
- pest or weed control at 125 g/ha ([5]; Xanthium strumarium, pre-emergence, Preemergence, scale 0 to 100, 0 no effect, 100 complete control, read-out: Plant response rating, Cocklebur): 90%
- Ragweed plant response rating (0 to 100 scale) [6, 10]: 95
- pest or weed control at 125 g/ha ([6]; Ambrosia artemisiifolia, post-emergence, 360 h, Postemergence, scale 0 to 100 (0 no effect, 100 complete control), read-out: Plant response rating, Ragweed): 98%
- pest or weed control at 250 g/ha ([6]; Ambrosia artemisiifolia, post-emergence, 360 h, Postemergence, 250 g ai/ha, scale 0 to 100 (0 no effect, 100 complete control), read-out: Plant response rating, Ragweed): 98%
- pest or weed control at 31 g/ha ([6]; Ambrosia artemisiifolia, pre-emergence, 360 h, Preemergence, 31 g ai/ha, scale 0 to 100 (0 no effect, 100 complete control), read-out: Plant response rating, Ragweed): 55%
- pest or weed control at 62 g/ha ([6]; Ambrosia artemisiifolia, pre-emergence, 360 h, Preemergence, 62 g ai/ha, scale 0 to 100 (0 no effect, 100 complete control), read-out: Plant response rating, Ragweed): 90%
- pest or weed control at 125 g/ha ([6]; Ambrosia artemisiifolia, pre-emergence, 360 h, Preemergence, scale 0 to 100, 0 no effect, 100 complete control, read-out: Plant response rating, Ragweed): 95%
- Ragweed plant response rating [6, 11]: 98
- Foxtail, Green plant response rating (0 to 100 scale) [7, 10]: 80
- Foxtail, Green plant response rating [7, 11]: 100
- pest or weed control at 31 g/ha ([7]; Setaria viridis, post-emergence, postemergence, scale 0 to 100, 0 is no effect, 100 is complete control, read-out: Plant response rating, Foxtail, Green): 80%
- pest or weed control at 125 g/ha ([7]; Setaria viridis, post-emergence, Postemergence, scale 0 to 100 (0 no effect, 100 complete control), read-out: Plant response rating, Foxtail, Green): 80%
- pest or weed control at 250 g/ha ([7]; Setaria viridis, post-emergence, Postemergence, 250 g ai/ha, scale 0 to 100 (0 no effect, 100 complete control), read-out: Plant response rating, Foxtail, Green): 95%
- pest or weed control at 31 g/ha ([7]; Setaria viridis, pre-emergence, Preemergence, scale 0 to 100 (0 no effect, 100 complete control), read-out: Plant response rating, Foxtail, Green): 10%
- pest or weed control at 62 g/ha ([7]; Setaria viridis, pre-emergence, Preemergence, 62 g ai/ha, scale 0 to 100, 0 no effect, 100 complete control, read-out: Plant response rating, Foxtail, Green): 40%
- pest or weed control at 125 g/ha ([7]; Setaria viridis, pre-emergence, Preemergence, scale 0 to 100, 0 no effect, 100 complete control, read-out: Plant response rating, Foxtail, Green): 60%
- Morningglory plant response rating (0 to 100 scale) [8, 10]: 100
- pest or weed control at 31 g/ha ([8]; Ipomoea, post-emergence, 31 g ai/ha, postemergence, scale 0 to 100, 0 is no effect, 100 is complete control, read-out: Plant response rating, Morningglory): 98%
- pest or weed control at 125 g/ha ([8]; Ipomoea, post-emergence, Postemergence, 125 g ai/ha, scale 0 to 100 (0 no effect, 100 complete control), read-out: Plant response rating, Morningglory): 100%
- pest or weed control at 250 g/ha ([8]; Ipomoea, post-emergence, Postemergence, 250 g ai/ha, scale 0 to 100 (0 no effect, 100 complete control), read-out: Plant response rating, Morningglory): 100%
- Kochia plant response rating (0 to 100 scale) [9, 10]: 100
- pest or weed control at 31 g/ha ([9]; Bassia scoparia, post-emergence, postemergence, scale 0 to 100, 0 is no effect, 100 is complete control, read-out: Plant response rating, Kochia): 98%
- pest or weed control at 125 g/ha ([9]; Bassia scoparia, post-emergence, Postemergence, scale 0 to 100 (0 no effect, 100 complete control), read-out: Plant response rating, Kochia): 100%
- pest or weed control at 250 g/ha ([9]; Bassia scoparia, post-emergence, Postemergence, 250 g ai/ha, scale 0 to 100 (0 no effect, 100 complete control), read-out: Plant response rating, Kochia): 100%
- pest or weed control at 31 g/ha ([9]; Bassia scoparia, pre-emergence, Preemergence, scale 0 to 100 (0 no effect, 100 complete control), read-out: Plant response rating, Kochia): 80%
- pest or weed control at 62 g/ha ([9]; Bassia scoparia, pre-emergence, Preemergence, 62 g ai/ha, scale 0 to 100 (0 no effect, 100 complete control), read-out: Plant response rating, Kochia): 80%
- pest or weed control at 125 g/ha ([9]; Bassia scoparia, pre-emergence, Preemergence, scale 0 to 100, 0 no effect, 100 complete control, read-out: Plant response rating, Kochia): 85%
- Kochia plant response rating [9, 11]: 90
